{"source": "patent US7625879B2", "about": "(priority 1998, dated 2009)", "key": {"[1]": {"test_system": "Tγ9δ2 lymphocytes", "experiment": "Stimulation of the proliferation of Tγ9δ2 lymphocytes in a culture", "type": "cell-based, human", "conditions": "effective dose at 50% of the maximum polyclonal lymphocyte amplification effect; 8 days culture with hIL-2; read-out: ED 50% (the source's name)", "description": "20 microliters of the aqueous solution of the compound according to the invention adjusted to the final concentration specified in the test are added to an in vitro culture of 10^6 total T lymphocytes in 1 ml, separated from the blood of a healthy adult human donor and initially containing 1-5% of Tγ9δ2 lymphocytes, in an adequate culture medium (RPMI 1640+10% of inactivated human serum and 50 U/ml of human interleukin-2 (hIL-2)). After culturing for 4 days, 50 U of dIL-2 are added per milliliter of culture medium. After 8 days, the cells are counted, collected, washed with phosphate buffer, and the Tγ9δ2 type cells are detected in the culture by labeling with conventional commercial reagents (fluorescein-labeled monoclonal antibodies) and the proportion thereof determined by flux cytometry analysis. The parameter measured is either the change in the proportion of or the increase in the number of Tγ9δ2 cells in cultures in the presence of the compound according to the invention in comparison with cultures not containing a compound according to the invention."}, "[2]": {"test_system": "Tγ9δ2 lymphocytes", "experiment": "Reactivity ex vivo of Tγ9δ2 lymphocytes from injected macaques in culture", "type": "cell-based, Macaca fascicularis", "description": "(§1) These tests are performed on monkeys of the species Macaca fascicularis (males weight 3-4 kg) anaesthetized with 15 mg/kg Zoletil (zolazepam)®/0.01 mg/kg atropine. The batches of BrHPP (in NA^+ form) are subjected to prior purity testing (>99%), quantified and have been tested in accordance with the pyrogenicity tests of Example 12. The animals are injected by rapid intravenous injection (2-5 minutes into the saphenous vein) with 0.1 mg/kg of BrHPP (i.e. 0.3-0.4 mg per animal) diluted in 10 ml of Ringer lactate. Each animal also receives a subcutaneous injection of 90,000 units of interleukin-2 (IL-2). These injections are performed once daily for four days. Control animals receive only the subcutaneous injection of IL-2 once daily for four days.\n(§2) The proportion of Tγ9δ2 lymphocytes in total lymphocytes in the various animals is compared in the following three situations: • in the animal's bloodstream, • in a culture of total lymphocytes taken from the animal receiving only BrHPP, • in a culture of total lymphocytes talken from the animal receiving BrHPP+IL-2."}, "[3]": {"test_system": "Tγ9δ2 lymphocytes", "experiment": "In vivo bioactivity in the macaque: Tγ9δ2 lymphocytes in the blood", "set-up": "species or system Macaca fascicularis", "conditions": "for % of Tγ9δ2 lymphocytes in the blood in vivo (7 days after injection): animals injected BrHPP only", "description": "as §1, §2"}, "[4]": {"experiment": "Pyrogenicity in rabbits (ISO-10993-11, USP XXIII)", "type": "in vivo", "description": "This test is performed in accordance with a protocol specified by standards ISO-10993-11 (1993) and USP XXIII. […] Temperature is taken every 30 minutes for 3 hours starting 30 minutes after the injection."}, "[5]": {"experiment": "Toxicity of BrHPP (sodium salt) in mice, intravenous injection", "type": "in vivo", "description": "Eight 30 g mice received an intravenous injection (caudal vein) of 300 μl of PBS buffer containing 1 mg of BrHPP (sodium salt). […] Toxicity is thus less than 12.5% for a dose of 33.4 mg of BrHPP (Na^+) per kilogram of animal body weight."}, "[6]": {"test_system": "human Tγ9δ2 lymphocytes", "conditions": "cited from earlier work"}, "[7]": {"test_system": "Tγ9δ2 lymphocyte clone", "experiment": "Stimulation of induced cytotoxicity of a Tγ9δ2 lymphocyte clone"}, "[8]": {"conditions": "animals injected BrHPP only, twice (1 injection + 1 booster)"}}, "note": "Counter-ions that a name gives are not always drawn.", "data": [{"molecule": "α,γ di-[3-(iodomethyl)-3-butanol-1-yl] triphosphate [di-IHTP]", "values": [{"measurement": "EC50", "setting": "[1]", "result": 7, "unit": "µM"}]}, {"molecule": "CC(O)(CBr)CCOP(=O)(O)OP(=O)(O)OP(=O)(O)O", "note": "(stereo not shown) [BrHPPP, 3-(bromomethyl)-3-butanol-1-yl triphosphate]", "values": [{"measurement": "EC50", "setting": "[1]", "result": 0.12, "unit": "µM"}]}, {"molecule": "3-(bromomethyl)-3-butanol-1-yl diphosphate [BrHPP]", "values": [{"measurement": "EC50", "setting": "[1]", "result": 0.01, "unit": "µM"}, {"measurement": "Reactivity ex vivo of Tγ9δ2 lymphocytes (% after 10 days' culturing in vitro), Amplification by 40 nM BrHPP", "setting": "[2]; animals injected BrHPP + IL-2", "result": 10, "unit": "%"}, {"measurement": "Reactivity ex vivo of Tγ9δ2 lymphocytes (% after 10 days' culturing in vitro), Amplification by 40 nM BrHPP + IL-2", "setting": "[2]; animals injected BrHPP + IL-2", "result": 50.0, "unit": "%"}, {"measurement": "Reactivity ex vivo of Tγ9δ2 lymphocytes (% after 10 days' culturing in vitro), Amplification by 40 nM BrHPP", "setting": "[2]; animals injected BrHPP only", "result": 1, "unit": "%"}, {"measurement": "Reactivity ex vivo of Tγ9δ2 lymphocytes (% after 10 days' culturing in vitro), Amplification by 40 nM BrHPP", "setting": "[2]; [8]", "result": 1, "unit": "%"}, {"measurement": "Reactivity ex vivo of Tγ9δ2 lymphocytes (% after 10 days' culturing in vitro), Amplification by 40 nM BrHPP + IL-2", "setting": "[2]; [8]", "result": 40.2, "unit": "%"}, {"measurement": "% of Tγ9δ2 lymphocytes in the blood in vivo (7 days after injection)", "setting": "[3]; i.v. 0.1 mg/kg, Na+ form", "result": "~1", "unit": "%"}, {"measurement": "% of Tγ9δ2 lymphocytes in the blood in vivo (7 days after injection)", "setting": "[3]; twice (1 injection + 1 booster)", "result": "~1", "unit": "%"}, {"measurement": "effect on the monkey's Tγ9δ2 lymphocytes in vivo", "setting": "[3]; intravenous injection of BrHPP in the presence of subcutaneous IL-2", "result": "preactivates these same cells and brings about the growth thereof in vivo"}, {"measurement": "effect on the monkey's Tγ9δ2 lymphocytes in vivo", "setting": "[3]; single or repeated intravenous injection of BrHPP alone", "result": "preactivates the monkey's Tγ9δ2 lymphocytes, but does not stimulate the growth thereof in the animal"}]}, {"molecule": "CC(O)(CBr)CCOP(=O)(O)OP(=O)(O)OP(=O)(O)OCCC(C)(O)CBr", "note": "(stereo not drawn) [di-BrHTP, α,γ di-[3-(bromomethyl)-3-butanol-1-yl] triphosphate]", "values": [{"measurement": "EC50", "setting": "[1]", "result": 3, "unit": "µM"}]}, {"molecule": "3-(iodomethyl)-3-butanol-1-yl diphosphate [IHPP]", "values": [{"measurement": "EC50", "setting": "[1]", "result": 0.003, "unit": "µM"}]}, {"molecule": "CC(O)(CBr)CCOP(=O)(O)OP(=O)(O)O", "note": "(stereo not shown) [BrHPP (sodium salt), 3-(bromomethyl)-3-butanol-1-yl diphosphate]", "values": [{"measurement": "side-effect on injection", "setting": "[4]; 400 μg/ml solution, i.v.", "result": "muscle tremors"}, {"measurement": "reaction to the injection", "setting": "[4]; solution diluted 1:40 to 10 μg/ml, one rabbit, in 19 minutes", "result": "no reaction to the injection"}, {"measurement": "febrile reaction (increase in temperature greater than 0.5° C.)", "setting": "[4]; three rabbits, i.v. 400 μg/ml, 10 ml per kilogram, 3 hours", "result": "Only one rabbit exhibited an increase in temperature of greater than 0.5 °C"}, {"measurement": "Toxicity", "setting": "[5]; dose of 33.4 mg per kilogram of animal body weight, i.v.", "result": "less than 12.5%"}, {"measurement": "signs of shock or pyrogenicity", "setting": "[5]; eight 30 g mice, i.v. caudal vein, 1 mg in 300 μl PBS", "result": "No sign of shock or pyrogenicity"}, {"measurement": "variation in the weight of the mice", "setting": "[5]; i.v. 1 mg per 30 g mouse, during the study", "result": "no significant variation"}, {"measurement": "mice still alive after 30 days", "setting": "[5]; of eight mice, i.v. 1 mg per 30 g mouse", "result": 8, "unit": "mice"}]}, {"molecule": "isopentenyl pyrophosphate [IPP]", "values": [{"measurement": "minimum active concentration (no activity demonstrated below)", "setting": "[6]; best results obtained, prior art compounds", "result": "≥ 3", "unit": "µM"}, {"measurement": "minimum active concentration relative to natural phosphoantigens", "setting": "[6]", "result": "~1000", "unit": "times higher"}, {"measurement": "EC50", "setting": "[1]", "result": 3, "unit": "µM"}, {"measurement": "concentration at which active in induced cytotoxicity test", "setting": "[7]; Tγ9δ2 lymphocyte clone, decreasing concentrations, FIG. 2", "result": "~3", "unit": "µM"}, {"measurement": "active concentration relative to the compounds according to the invention", "setting": "[7]; induced cytotoxicity test", "result": "~300", "unit": "times higher"}]}, {"molecule": "3-(chloromethyl)-3-butanol-1-yl diphosphate [CIHPP]", "values": [{"measurement": "EC50", "setting": "[1]", "result": 0.1, "unit": "µM"}]}, {"molecule": "CC(O)(CI)CCOP(=O)(O)OP(=O)(O)OP(=O)(O)O", "note": "(stereo not shown) [IHPPP, 3-(iodomethyl)-3-butanol-1-yl triphosphate]", "values": [{"measurement": "EC50", "setting": "[1]", "result": 0.07, "unit": "µM"}]}]}
